These results are taken from PubChem BioAssay (NCI).

Several values for one entry are separate records, joined by “and”; a condition that tells them apart may be missing. Equal values may be shown once.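 Growth conditions: 96-well plates. Treatment: test compound, 48 hours, 5 concentrations. Analysis: linear interpolation between bracketing concentrations; unreached endpoints set to highest concentration. GI50 = concentration required for 50% inhibition of growth. TGI denotes the concentration required for complete inhibition of growth.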 Some results are limits rather than exact numbers.

In this assay the test system is MDA-MB-468 breast. In words: DTP human tumour cell line panel, 48 h.

For the compound `CCOC(=O)C(Cc1c[nH]c2cc(N(CCO)CCO)ccc12)(NC(C)=O)C(=O)OCC`, the GI50 (commonly the concentration giving 50% growth inhibition) was 793 µM and the TGI – broadly, the concentration at which net growth stops – is greater than 1000 µM.
Take `N#Cc1cnc2cc(OC[C@@H](O)CO)c(NC(=O)C3CCCC3)cc2c1Nc1ccc(OCc2cccc(F)c2)c(Cl)c1`: the GI50 is 0.611 µM and the concentration for total growth inhibition (TGI) is 2.5 µM.
For the compound `NCCCCCNc1noc(Cc2c[nH]c3cc(Br)ccc23)n1`, the GI50 was 2.13 µM and the TGI was found to be 5.15 µM.
On to `CN1CCN(c2ccc(OC(F)(F)F)c(Nc3ncc4c(n3)-c3c(c(C(N)=O)nn3CCO)CC4)c2)CC1`, for which the GI50 is < 0.01 µM and 0.032 µM; the TGI was determined as 11.5 µM.
In the case of `O=C(Nc1cccc(-n2cc(-c3ccncc3)c(-c3ccc(O)c(Cl)c3)n2)c1)c1ccc2c(c1)OCCO2`, the GI50 is 6.88 µM and the TGI was greater than 100 µM.
`C/C=C/C/C=C/[C@H](C)C[C@H](O)[C@@H]1C[C@@H]2O[C@H]2/C=C/[C@@H]2OC(C)(C)O[C@H]2/C=C/C[C@H](C)CC(=O)O1`: the GI50 was 17.3 µM and the total growth inhibition concentration (TGI) was greater than 100 µM.
With `O=c1c2cc(-c3ccc(F)cc3F)ccc2n(Nc2ccccc2)c(=O)n1-c1cccc(C(F)(F)F)c1`, the GI50 was 1.99 µM and the TGI came out at 5.57 µM.
On to `CCCOc1cc2ccccc2cc1C(=O)Nc1nc(NC)c2c(ccc3nccc32)[nH]1`, for which the GI50 is 0.275 µM and the TGI was found to be 1.01 µM.
Regarding `CC[C@@]1(OC(=O)CN(C)C)C(=O)OCc2c1cc1n(c2=O)Cc2cc3c(N)cccc3nc2-1`, the GI50 is 0.0128 µM and the concentration for total growth inhibition (TGI) was 0.035 µM.
With `O=C(O)c1cc2ccccc2c2c3c(ccc12)OCO3`, the GI50 was 153 µM and the TGI worked out at 460 µM.
`Cc1ccc(C(=O)NCCCOc2ccc(N3C(N)=NC(N)=NC3(C)C)cc2Cl)cc1S(=O)(=O)F`: the GI50 was greater than 100 µM and the TGI is greater than 100 µM.
In the case of `COc1ccc(C(C)c2cc(OC)c(OC)c(OC)c2)cc1` (stereo not drawn), the GI50 was 0.0945 µM and the TGI is greater than 50 µM.
With `O=C1/C=C/[C@@H](O)[C@@H]2C[C@@H](O)C[C@H]2/C=C/CCC[C@H](CCc2ccc3ncccc3c2)O1`, the GI50 was 0.0656 µM and the TGI was 0.495 µM.
Turning to `COc1cccc(-c2nn(-c3ccccc3)cc2-c2ccnc(NCCCNC(=O)c3cccc(C(F)(F)F)c3)c2)c1`, the GI50 is 1.95 µM and the TGI came out at 7.37 µM.
For the compound `CN(C)C(=O)OCc1nc2c(N3CCOCC3)nc(-c3ccccc3)nc2n1C`, the GI50 is 0.573 µM and the TGI stood at 1.82 µM.
Consider `Cc1ccc(C(=O)c2sc3nc4c(cc3c2N)CCCC4)c(C)c1`, for which the GI50 was 0.21 µM and the TGI is 8.42 µM.
The matching figures for `Cc1cc(-c2nnc(/C=C/c3ccc4c(c3)OCO4)o2)n[nH]1`: 10.9 µM and 32.7 µM.
For `Cc1ccc(Nc2cc(Cl)c([N+](=O)[O-])cc2[N+](=O)[O-])cc1`, in that order: 1.8 µM and 3.58 µM.
Consider `O=C1Nc2cc(-c3cccc(O)c3)ccc2/C1=C/c1ccc[nH]1`, for which the GI50 is 0.245 µM and the total growth inhibition concentration (TGI) was 0.805 µM.
Regarding `COCCOCCOCc1n(Cc2ccc3ccccc3c2)c2ccccc2[n+]1Cc1ccc2ccccc2c1`, the GI50 is 0.11 µM and the TGI stood at 0.659 µM.
With `O=C(NCCc1ccccc1)Nc1ccc2cc3ccc(NC(=O)NCCc4ccccc4)cc3nc2c1`, the GI50 is 0.81 µM and the total growth inhibition concentration (TGI) stood at 2.27 µM.
As to `CCOC(=O)Nc1nc2ccccc2[nH]1`, the GI50 was 2.75 µM and 2.07 µM; the TGI is > 89.9 µM and 9.09 µM.
For `O=C(NCCN1CCCC1)c1ccc(-c2nc3ccc4[nH]ncc4c3c3c2CCCC3)cc1`, the GI50 is 0.356 µM and the concentration for total growth inhibition (TGI) turned out to be 1.38 µM.
Consider `Clc1ccc(C2CC(c3cccc(Nc4ccncc4)c3)=NN2c2ccc(Cl)cc2)cc1` (stereo not drawn), for which the GI50 is 1.4 µM and the TGI worked out at 2.92 µM.
In the case of `CNC(=O)c1cc(Oc2cccc3nc(NC(=O)Nc4cc(C(F)(F)F)cc(C(F)(F)F)c4)ccc23)ccn1`, the GI50 was 3.4 µM and the TGI is 26.6 µM.
With `COc1ccc(/C(C)=N/NC(=O)CSc2nc3ccccc3c(=O)n2CCc2ccc(S(N)(=O)=O)cc2)cc1`, the GI50 is 2.3 µM and the TGI was found to be 4.85 µM.
For `C[C@]12CC[C@@H]3c4ccc(O)cc4CC[C@H]3[C@@H]1CC[C@@H]2NS(=O)(=O)c1ccc(Br)cc1`, in that order: 3.57 µM and 11.2 µM.
For `CC(C)(C)c1cc(C(=O)Nc2ccc(C(=O)NCCN)cc2)cc(C(C)(C)C)c1`, in that order: 1.82 µM and 3.6 µM.
As for `N#Cc1ccc(-c2c(-c3ncn[nH]3)sc(N3CCOCC3)c2C#N)c(F)c1`, the GI50 is 0.242 µM and the TGI came out at 1.55 µM.
For the compound `O=[N+]([O-])c1cccc(-c2nc(-c3ccc(Cl)cc3Cl)cn2-c2ccccc2)c1`, the GI50 was 1.57 µM and the TGI turned out to be 6.75 µM.
Regarding `O=C(CSCC(=O)N/N=C/c1ccccc1O)N/N=C\c1ccccc1O`, the GI50 was 1.26 µM and the TGI worked out at 5.85 µM.
For `Cc1ccc(S(=O)(=O)OCC#CCOS(=O)(=O)c2ccc(C)cc2)cc1`, in that order: 1.85 µM and 3.88 µM.
As for `NCCCOc1cc2ccccc2cc1C(=O)Nc1ccc(Cl)cc1OC(=O)c1cc2ccccc2cc1OCCCN`, the 50% growth inhibitory concentration (GI50) is 0.221 µM and the TGI is 0.573 µM.
Regarding `Cc1nc(-c2cc3ccccc3oc2=O)ccc1C(=O)/C=C/c1ccccn1`, the GI50 is greater than 100 µM and the TGI is greater than 100 µM.
With `Nc1ncnc2c1ncn2C1OC(COS(N)(=O)=O)C(O)C1O` (stereo not drawn), the GI50 is 0.0021 µM and 0.0201 µM; the TGI is 0.00465 µM and 0.0422 µM.
With `O=C1CC[C@H](N2Cc3c(OCc4ccc(CN5CCOCC5)cc4)cccc3C2=O)C(=O)N1`, the GI50 is greater than 100 µM and the TGI is greater than 100 µM.
Regarding `COc1cc(Cl)cc(-c2nn(-c3cccc(NC(=O)Nc4cccc(C(F)(F)F)c4)c3)cc2-c2ccncc2)c1`, the GI50 was 1.05 µM and the TGI is 4.99 µM.
For the compound `CS(=O)(=O)Nc1cc(-c2ccc3ncnc(Nc4ccc(F)c(Cl)c4)c3c2)cnc1Cl`, the GI50 was 0.236 µM and 0.21 µM; the TGI is 1.29 µM and 1.02 µM.
With `Cc1cc(C(=O)/C=C/c2ccc[nH]2)ccc1-n1ccc(C(F)(F)F)n1`, the GI50 was 3.76 µM and the TGI was found to be 34.9 µM.
Regarding `CO[C@@H]1CCN(c2nccc(Nc3cc4c(C(C)C)ccc(N5CC(CS(C)(=O)=O)[C@H]5C)c4cn3)n2)C[C@@H]1F` (stereo partly drawn), the GI50 is 0.544 µM and the TGI is 4.11 µM.
As to `Nc1c(C(=O)Nc2ccccn2)sc2nc3c(cc12)C(O)CCC3` (stereo not drawn), the GI50 is 1.08 µM and the TGI was greater than 50 µM.
With `CCCCCCCCCCCCCCCCCCNCc1ccc(Cl)cc1`, the GI50 was 7.87 µM and the TGI came to 24.8 µM.
The matching figures for `O=S(=O)(NCCNc1nccc(-c2c(-c3ccc(F)c(O)c3)nc3sccn23)n1)c1ccc(Cl)cc1`: 2.17 µM and greater than 50 µM.
Consider `COc1cccc(/C=C/c2nc3c(cnn3-c3ccccc3)c(=O)[nH]2)c1`, for which the GI50 is 0.67 µM and the TGI is greater than 100 µM.
